Data on ten molecules can be found in US11230524B2, “Myocyte enhancer factor 2 (MEF2) modulators” (STANDARD LLC, priority 2017, dated 2022).

Molecules are shown by their SMILES. Structures can show the parent of a compound that is named as a salt.

Format in all cases: cell-based
Test [1] has as its target MEF2D/HDAC4 protein-protein interactions (Homo sapiens (Human), UniProt Q14814). Briefly: Mammalian two-hybrid assay, inhibition of MEF2D and HDAC4 protein interactions (luciferase reporter in HeLa cells). Conditions: HeLa cells co-transfected with GAL4-MEF2D, HDAC4-VP16 and Gal4Luc; overnight treatment; luciferase normalized to Renilla. The text has this: Detection of MEF2D and HDAC4 interactions. In this mammalian two-hybrid assay, HDAC4 and MEF2D proteins were used. […] Human epithelial carcinoma cells (HeLa) were co-transfected with the two DNA constructs (GAL4-MEF2D and HDAC4-VP16) and a reporter plasmid (Gal4Luc). […] MEF2D and HDAC4 protein interactions were detected as a result of the GAL4-MEF2D and HDAC4-VP16 protein complex binding a DNA promoter on the reporter plasmid (Gal4Luc) and driving cellular expression of a luciferase gene. The measured luciferase protein signal was proportional to the amount of MEF2D and HDAC4 protein interactions occurring with the cell.
The HDAC4 fragment lacked the catalytic domain so that the deacetylase activity was excluded from the assay.
Detection of inhibition of MEF2D and HDAC4 interactions. Next, the assay was used to test whether the compounds could disrupt the interactions between MEF2D and HDAC4. After co-expressing the GAL4-MEF2D and HDAC4-VP16 DNA constructs and reporter plasmid, the HeLa cells were treated with a test compound (10 μM) overnight. Cells transfected with the positive control GAL4VP16 fusion construct and reporter plasmid were also treated with the test compound (10 μM) overnight. As another control, DMSO was added (but kept below 0.2% V/V) to cells transfected with the positive GAL4VP16 fusion construct or the GAL4-MEF2D and HDAC4-VP16 DNA constructs. A luciferase assay was performed as described above according to the manufacturer's protocol (Promega). The luciferase response was normalized against the Renilla Luciferase as an internal control.
The relative activity and IC50 calculations. […] The relative activity, I, was the ratio of former to later, i.e. X/Y, expressed in percentile. […] The IC50 was the concentration of the compounds when X/Y equals 50.

Test [2] deals with MEF2D/p300 protein-protein interactions (Homo sapiens (Human), UniProt Q14814). The test can be described thus: Mammalian two-hybrid assay, inhibition of MEF2D and P300 protein interactions (luciferase reporter in HeLa cells). The conditions noted are these: HeLa cells co-transfected with GAL4-MEF2D, P300-VP16 and Gal4Luc. From the text: Detection of MEF2D and P300 interactions. The same system that was used in Example 19 is used in here to detect MEF2D and P300 interactions. In this assay, two separate DNA constructs were made with MEF2D fused with the GAL4 DNA binding domain (GAL4-MEF2D) and P300 fused with the viral transactivator VP-16 ([…]). Human epithelial carcinoma cells (HeLa) were co-transfected with the two DNA constructs (GAL4-MEF2D and P300-VP16) and a reporter plasmid (Gal4Luc). […] MEF2D and P300 protein interactions were detected as a result of the GAL4-MEF2D and P300-VP16 protein complex binding a DNA promoter on the reporter plasmid (Gal4Luc) and driving cellular expression of a luciferase gene. The measured luciferase protein signal was proportional to the amount of MEF2D and P300 protein interactions occurring with the cell.
Sequence of MEF2D/p300 protein-protein interactions (Q14814 whole entry, species assumed, the tested form may be a part): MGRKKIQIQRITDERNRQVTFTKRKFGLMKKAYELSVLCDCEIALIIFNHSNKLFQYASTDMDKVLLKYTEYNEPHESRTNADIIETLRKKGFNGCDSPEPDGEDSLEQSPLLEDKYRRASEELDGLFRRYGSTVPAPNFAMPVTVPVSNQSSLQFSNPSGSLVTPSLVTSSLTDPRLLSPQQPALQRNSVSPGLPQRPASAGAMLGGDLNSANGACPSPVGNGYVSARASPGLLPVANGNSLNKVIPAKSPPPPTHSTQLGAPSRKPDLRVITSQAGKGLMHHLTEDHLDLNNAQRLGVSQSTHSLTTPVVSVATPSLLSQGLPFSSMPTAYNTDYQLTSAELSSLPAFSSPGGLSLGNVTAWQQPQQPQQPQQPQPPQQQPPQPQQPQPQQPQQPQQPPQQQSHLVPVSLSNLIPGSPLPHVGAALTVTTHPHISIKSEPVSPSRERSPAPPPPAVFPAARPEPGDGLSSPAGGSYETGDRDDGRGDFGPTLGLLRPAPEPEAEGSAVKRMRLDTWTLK
The relative activity and IC50 calculations. The IC50 concentrations were calculated in the same manner as described for Example 19.

Test [3] relates to neonatal rat ventricular myocytes (NRVMs). Briefly: Inhibition of fetal calf serum induced cardiomyocyte hypertrophy in vitro. The conditions noted are these: serum-starved NRVMs, 5% FCS, myocyte size 48 hours after treatment, concentration reducing FCS-induced hypertrophy by 50%; for IC50: Rattus norvegicus, Ventricular myocyte. The procedure: To evaluate the ability of the test compounds to inhibit cardio myocyte hypertrophy in vitro, serum-starved neonatal rat ventricular myocytes (NRVMs) were exposed to medium with 5% Fetal Calf Serum (FCS), a powerful activator of myoctye growth (hypertrophy) and treated with one of the compounds at doses ranging from 0.2-10 μM or with the vehicle (dimethyl sulfoxide (DMSO)). Control cells received fresh media without serum. The myocyte size was determined 48 hours after treatment. The results in Table 7 show the concentrations of the test compounds required to reduce the FCS-induced hypertrophy in the NRVMs by 50% (IC50 μM).

Sequence of MEF2D/HDAC4 protein-protein interactions (Q14814 whole entry, species assumed, the tested form may be a part): as above

For the molecule `CCOC(=O)NC(CCCCC(=O)NCc1cncc(OCC)c1)C(=O)NCc1cncc(OCC)c1` (stereo not drawn) [ST129], the 50% inhibitory concentration (IC50) in test [1] and in test [2] was 20000 nM throughout. Also, in test [3], the “IC50, inhibition of cardiomyocyte hypertrophy in vitro” value is reported as “no inhibition”.
As to `Nc1ccccc1NC(=O)/C=C/c1cccc(CNc2cccc(OC3CC3)c2)c1` [ST7, (E)-N-(2-aminophenyl)-3-(3-(((3-cyclopropoxyphenyl)amino)methyl)phenyl)acrylamide], the results for the IC50 in test [1], in test [2] and in test [3] were 1600 nM, 1600 nM and 0.46 µM, respectively.
For `CCOC(=O)N[C@@H](CCCCC(=O)Nc1ccccc1N)C(=O)Nc1cccc(Br)c1` [ST104, (S)-ethyl (7-((2-aminophenyl)amino)-1-((3-bromophenyl)amino)-1,7-dioxoheptan-2-yl)carbamate], the half-maximal inhibitory concentration (IC50) was 470 nM in test [1], 380 nM in test [2] and 2.89 µM in test [3].
With `Nc1ccccc1NC(=O)CCCCC(NC(=O)c1cccnc1)C(=O)Nc1cccc(Br)c1` (stereo not drawn) [ST93, N^7-(2-aminophenyl)-N^1-(3-bromophenyl)-2-(nicotinamido)heptanediamide], the IC50 in test [1] stood at 610 nM; in test [2], 1080 nM; in test [3], 5500 µM.
On to `COC(=O)NC(CCCCC(=O)Nc1ccccc1N)C(=O)Nc1nc(-c2ccncc2)cs1` (stereo not drawn) [ST116, methyl (7-((2-aminophenyl)amino)-1,7-dioxo-1-((4-(pyridin-4-yl)thiazol-2-yl)amino)heptan-2-yl)carbamate], for which the results for the 50% inhibitory concentration (IC50) in test [1], in test [2] and in test [3] were 570 nM, 270 nM and 4400 µM, respectively.
For `Nc1ccccc1NC(=O)/C=C/c1cccc(CNc2ccc3ncccc3c2)c1` [ST55, (E)-N-(2-aminophenyl)-3-(3-((quinolin-6-ylamino)methyl)phenyl)acrylamide], in that order: 4530 nM, 510 nM and 9.26 µM.
The matching figures for `COC(=O)NC(CCCCC(=O)Nc1ccccc1N)C(=O)Nc1cccc(OCC(F)(F)F)c1` (stereo not drawn) [ST102, methyl (7-((2-aminophenyl)amino)-1,7-dioxo-1-((3-(2,2,2-trifluoroethoxy)phenyl)amino)heptan-2-yl)carbamate hydrochloride]: 940 nM, 1200 nM and 0.71 µM.
Take `COC(=O)NC(CCCCC(=O)Nc1ccccc1N)C(=O)Nc1cccc2cccnc12` (stereo not drawn) [ST119, methyl (7-((2-aminophenyl)amino)-1,7-dioxo-1-(quinolin-8-ylamino)heptan-2-yl)carbamate]: the values for the IC50 in test [1], in test [2] and in test [3] were 390 nM, 140 nM and 0.079 µM, respectively.
As to `CCOC(=O)NC(CCCCC(=O)Nc1ccccc1N)C(=O)Nc1cccc(OC2CC2)c1` (stereo not drawn) [ST83, ethyl (7-((2-aminophenyl)amino)-1-((3-cyclopropoxyphenyl)amino)-1,7-dioxoheptan-2-yl)carbamate], the IC50 in test [1] was determined as 840 nM; in test [2], 440 nM; in test [3] it was 3.85 µM.
In the case of `Nc1ccccc1NC(=O)/C=C/c1cccc(CNc2ccccc2)c1` [ST1, (E)-N-(2-aminophenyl)-3-(3-((phenylamino)methyl)phenyl)acrylamide], the IC50 in test [1] was found to be 9400 nM; in test [2] it was 380 nM; in test [3], 0.81 µM.
